Data set [1] can be described thus: Photolysis at 1×ICH solid state. In kind it is physicochemical.
Data set [2] in a line: Solid-state stability on storage (degradation; physical changes by XRPD). In kind it is physicochemical. As to conditions: 40° C./75% RH open vessel, and 50° C./Ambient closed vessel.

Experimental findings from patent publication US9884846B2, “Crystalline salts of (S)-6-((1 acetylpiperidin-4-yl)amino)-N-(3-(3,4-dihydroisoquinolin-2(1H)-yl)-2-hydroxypropyl)pyrimidine-4-carboxamide” (GlaxoSmithKline Intellectual Property Development Limited, priority 2014, dated 2018) are described below.

A value given as a limit tells only on which side of the number the result lay.

Consider `CC(=O)N1CCC(Nc2cc(C(=O)NC[C@H](O)CN3CCc4ccccc4C3)ncn2)CC1.O=C(O)c1ccccc1` [Compound C, benzoate salt of (S)-6-((1-acetylpiperidin-4-yl)amino)-N-(3-(3,4-dihydroisoquinolin-2(1H)-yl)-2-hydroxypropyl)pyrimidine-4-carboxamide], for which, in data set [1], the degradation by photolysis entry is recorded as “Approximately 1.6%” and the “form change by XRPD after photolysis” value is “no form change observed”. Moreover, the “physical changes by XRPD analysis” value in data set [2] (after 2 weeks at 25° C./60% RH open vessel) is recorded as “No physical changes detected”.
In the case of `CC(=O)N1CCC(Nc2cc(C(=O)NC[C@H](O)CN3CCc4ccccc4C3)ncn2)CC1.O=C(O)CCC(=O)O` [Compound B, succinate salt of (S)-6-((1-acetylpiperidin-4-yl)amino)-N-(3-(3,4-dihydroisoquinolin-2(1H)-yl)-2-hydroxypropyl)pyrimidine-4-carboxamide], in data set [1], the degradation by photolysis entry is recorded as “Approximately 1.4%” and the “form change by XRPD after photolysis” value was “no form change observed”. Besides, the degradation in data set [2] (after 4 weeks at 25° C./60% RH open vessel) was not above 0.4%. In addition, the “physical changes by XRPD analysis” value in data set [2] (after 6 weeks at 25° C./60% RH open vessel) is recorded as “No physical changes detected”.
